Read-outs that look alike come from different tables or passages of the source.
Legend:
L. major promastigotes = assay: Activity against L. major promastigotes (MTT, 72 h); type: cell-based, Leishmania major; conditions: mean ± SD, read-out: EC50 L. major prom
Procedure: (§1) L. major promastigotes were isolated and maintained according to a described method. BALB/c mice were injected at the hind footpads with 1 × 10^6 L. major metacyclic promastigotes. L. major amastigotes were collected from the infected mice. After 8 weeks had elapsed since inoculation, Schneider’s medium (Invitrogen, USA) containing antibiotics and 10% FBS was used to transform isolated amastigotes into promastigotes by incubation at 26 °C. Amastigote-derived promastigotes with less than five in vitro passages were only used for infection.
To assess the activity of the compounds against L. major promastigotes, 10^6 promastigotes/mL were cultured in 96-well plates in Schneider’s medium with 10% FBS. Then, the compounds or amphotericin B (AmB) were added to obtain the final concentrations (50, 25, 12.5, 6.25, 3.13, 1.65, 0.75, or 0.37 μg mL^–1). Negative control wells contained cultures with DMSO (1%) only. Plates were incubated at 26 °C for 72 h to evaluate the antiproliferative effect. The colorimetric MTT method was used to count viable promastigotes under a microplate absorbance spectrophotometer (xMark, Bio-Rad, USA) at 570 nm. The experiment was performed in triplicate.

L. major amastigotes = assay: Activity against L. major amastigotes in peritoneal macrophages (percentage of infected macrophages, Giemsa, 72 h); type: cell-based, Leishmania major; conditions: intracellular amastigotes, mean ± SD, read-out: EC50 L. major ama
Procedure: as §1
(§2) Female BALB/c mouse peritoneal macrophages (6–8 weeks old) were used to culture L. major amastigotes to assess the activity of the compounds against amastigotes. Briefly, 1 mL of 3% Brewer’s thioglycollate medium/mouse was injected into the peritoneal cavity. After 4 days, the abdominal skin was removed to expose the peritoneal wall. Then, 3 mL of RPMI 1640 medium was injected before cells were collected by aspiration, whereupon 96-well plates containing RPMI 1640 medium with 10% FBS were used to culture 5 × 10^4 cells/well, which were incubated at 37 °C under 5% CO2 for 4 h. After washing with PBS, RPMI 1640 medium containing 5 × 10^5 promastigotes were added to each well. Next, the cells were incubated at 37 °C under humidified 5% CO2 for 24 h to enhance infection and differentiation of amastigotes. Washing with PBS several times removed free promastigotes. Fresh complete RPMI 1640 medium containing one of the tested compounds or AmB at the desired final concentration (50, 25, 12.5, 6.25, 3.13, 1.65, 0.75, or 0.37 μg mL^–1) was added and incubated at 37 °C under a humidified 5% CO2 atmosphere for 72 h. DMSO (1%), only in complete RPMI media, was used as the negative control. The percentage of infected macrophages was assessed microscopically after the medium was removed, followed by washing with PBS, fixation with methanol, and staining with Giemsa. The reading was performed in triplicate. Handling of the laboratory animals followed the instructions and rules of the Committee of Research Ethics, Deanship of Scientific Research, Qassim University, permission number 20–03–20.

[1] = tested on: T. gondii tachyzoites (RH strain); assay: Anti-Toxoplasma activity (infection index in Vero cells, 72 h); type: cell-based, Toxoplasma gondii; conditions: mean ± SD
Procedure: Tachyzoites of the T. gondii RH strain were cultivated in Vero cells according to a published method. Complete RPMI 1640 medium (Invitrogen, USA) with 10% fetal bovine serum (FBS, Invitrogen, USA) was used to culture Vero cells in 96-well plates (5 × 10^3 cells/well in 200 μL of medium), which were incubated at 37 °C and under 5% CO2 for 24 h. This was followed by washing with phosphate-buffered saline (PBS) to remove the medium. Then, RPMI 1640 medium with 2% FBS containing T. gondii tachyzoites (RH strain) at a ratio of 5 (parasite): 1 (Vero cells) was added. After incubation at 37 °C and under 5% CO2 for 5 h, the cells were washed with PBS and overlaid with medium containing one of the tested compounds or atovaquone (ATO) at 50, 25, 12.5, 6.25, 3.13, 1.65, 0.75, or 0.37 μg mL^–1.
After incubation at 37 °C and under 5% CO2 for 72 h, the cells were stained with 1% toluidine before being examined under an inverted photomicroscope (MCD-400, Leica, Japan) to determine the T. gondii infection index (number of infected cells from 200 tested cells). The experiment was performed in triplicate.

Vero cells = assay: Cytotoxicity assay (MTT), Vero cells; type: cell-based, African Green Monkey; conditions: Chlorocebus sabaeus, 72 h, mean ± SD
Procedure: (§3) The MTT colorimetric assay was conducted to assess the cytotoxicity of the compounds according to a method described previously. Briefly, Vero cells or macrophages were cultured in 96-well plates (5 × 10^3 cells/well/200 μL) in RPMI 1640 medium with 10% FBS at 37 °C and under 5% CO2 for 24 h. Thereafter, PBS was used to wash the cells. Then, the compounds in RPMI complete medium with 10% FBS (at varying concentrations of 50, 25, 12.5, 6.25, 3.13, 1.65, 0.75, or 0.37 μg mL^–1) were added to 96-well plates and incubated for 72 h. Cells treated with a medium containing only DMSO (1%) were used as the negative control. After washing, MTT (1 mg mL^–1 in RPMI 1640 medium) was added to each well. The cells were incubated for 4 h, and the supernatant was removed. Next, 150 μL of DMSO was added, and a microplate absorbance spectrophotometer was applied for colorimetric analysis (λ = 540 nm). Cytotoxic effects were expressed by IC50 values (concentration that caused a 50% reduction of viable cells). The experiment was performed in triplicate.

macrophages = assay: Cytotoxicity assay (MTT), macrophages; type: cell-based, BALB/c mouse; conditions: Mus musculus, Macrophage; 72 h, mean ± SD; read-out: IC50 macro
Procedure: as §2, §3

[2] = tested on: L. amazonensis promastigotes; design: method as in Oliveira and co-workers; conditions: ref Oliveira and co-workers, cited from earlier work

| EC50 (L. major promastigotes; Leishmania major) [µM] | EC50 (L. major amastigotes; Leishmania major) [µM] | EC50 (L. major amastigotes) [µM] | EC50 (L. major promastigotes) [µM] | Structure (SMILES) | EC50 ([1]; Toxoplasma gondii, Vero) [µM] | IC50 (Vero cells) [µM] | IC50 (macrophages) [µM] | activity against L. amazonensis promastigotes [2] | IC50 ([2]; read-out: IC50 against L. amazonensis promastigotes) [µM] | EC50 [1] [µM] |
| --- | --- | --- | --- | --- | --- | --- | --- | --- | --- | --- |
| > 46.7 | 23.3 ± 3.4 |  |  | CCOC(=O)C1=C(C)NC2=C(C(=O)CC(C)(C)C2)C1c1ccc(OCc2ccccc2)cc1 (racemic) [Compound 4, (±)-ethyl 4-(4-(benzyloxy)phenyl)-2,7,7-trimethyl-5-oxo-1,4,5,6,7,8-hexahydroquinoline-3-carboxylate] | 3.1 ± 0.4 | 17.5 ± 3 | 25.1 ± 3.7 |  |  |  |
| > 58.2 | 13.7 | 10.6 ± 2.1 |  | CCOC(=O)C1=C(C)NC2=C(C(=O)CC(C)(C)C2)C1c1ccccc1[N+](=O)[O-] (racemic) [Compound 9, (±)-ethyl 2,7,7-trimethyl-4-(2-nitrophenyl)-5-oxo-1,4,5,6,7,8-hexahydroquinoline-3-carboxylate] | 12 ± 1.9 | 4.5 ± 0.7 | 12 ± 1.9 |  |  |  |
|  |  |  |  | C[C@@H]1[C@H](O)[C@@H](C)/C=C/C=C/C=C/C=C/C=C/C=C/C=C/[C@H](O[C@@H]2O[C@H](C)[C@@H](O)[C@H](N)[C@@H]2O)C[C@@H]2O[C@](O)(C[C@@H](O)C[C@@H](O)[C@H](O)CC[C@@H](O)C[C@@H](O)CC(=O)O[C@H]1C)C[C@H](O)[C@H]2C(=O)O [AmB, amphotericin B, reference compound] |  | 10.3 ± 1.2 |  |  |  |  |
| > 61.3 | > 61.3 |  |  | CCOC(=O)C1=C(C)NC2=C(C(=O)CC(C)(C)C2)C1c1ccccc1 (stereo not drawn) [Compound 1] | > 61.3 | > 61.3 | > 61.3 |  |  |  |
| > 58.8 | > 58.8 |  |  | CCOC(=O)C1=C(C)NC2=C(C(=O)CC(C)(C)C2)C1c1ccc(C)cc1 (stereo not drawn) [Compound 2] | > 58.8 | 52.9 ± 9.8 | 47.8 ± 7.6 |  |  |  |
| > 56.3 | > 56.3 |  |  | CCOC(=O)C1=C(C)NC2=C(C(=O)CC(C)(C)C2)C1c1ccc(OC)cc1 (stereo not drawn) [Compound 3] | > 56.3 | 49.8 ± 8.9 | 38.7 ± 6.8 |  |  |  |
| > 54.4 | > 54.4 |  |  | CCOC(=O)C1=C(C)NC2=C(C(=O)CC(C)(C)C2)C1c1ccc(N(C)C)cc1 (stereo not drawn) [Compound 5] | 29.5 ± 4.1 | 49.4 ± 8.8 | 49.9 ± 7.4 |  |  |  |
| > 49.7 | > 49.7 |  |  | CCOC(=O)C1=C(C)NC2=C(C(=O)CC(C)(C)C2)C1c1ccc(Br)cc1 (stereo not drawn) [Compound 6] | 23.4 ± 3.5 | 17.4 ± 2.9 | 23.4 ± 3.5 |  |  |  |
| > 55.6 | > 55.6 |  |  | CCOC(=O)C1=C(C)NC2=C(C(=O)CC(C)(C)C2)C1c1cccc(Cl)c1 (stereo not drawn) [Compound 8] | > 55.6 | > 55.6 | > 55.6 |  |  |  |
| > 54.1 | 26.3 ± 3.7 |  |  | CCOC(=O)C1=C(C)NC2=C(C(=O)CC(C)(C)C2)C1c1cccc([N+](=O)[O-])c1 (stereo not drawn) [Compound 10] | 16.4 ± 2.5 | 10.7 ± 2.1 | 24.5 ± 3.6 |  |  |  |
| > 54 | > 54 |  |  | CCOC(=O)C1=C(C)NC2=C(C(=O)CC(C)(C)C2)C1c1ccc(O)c(OC)c1 (stereo not drawn) [Compound 11] | 26.5 ± 3.6 | 45.1 ± 7.9 | 48 ± 8.1 |  |  |  |
| < 50 | > 60.6 |  | 47.5 ± 6.2 | CCOC(=O)C1=C(C)NC2=C(C(=O)CC(C)(C)C2)C1c1ccc2c(c1)OCO2 (stereo not drawn) [Compound 12] | 30.3 ± 5.2 | 14.9 ± 2.6 | 42.5 ± 7.2 | inactive |  |  |
| > 48.4 | > 48.4 |  |  | CCOC(=O)C1=C(C)NC2=C(C(=O)CC(C)(C)C2)C1c1cc(OC)c(OC)c(OC)c1 (stereo not drawn) [Compound 13] | > 48.4 | > 48.4 | > 48.4 |  | 24.6 |  |
|  | 21 ± 3.9 |  |  | CCOC(=O)C1=C(C)NC2=C(C(=O)CC(C)(C)C2)C1c1c(OC)cc(OC)cc1OC (stereo not drawn) [Compound 14] | > 48.4 | 22.8 ± 3.3 | 16.8 ± 3.1 | inactive |  |  |
| < 50 | > 51.3 |  | 40 ± 6.4 | CCOC(=O)C1=C(C)NC2=C(C(=O)CC(C)(C)C2)C1c1ccco1 (stereo not drawn) [Compound 15] | > 51.3 | > 51.3 | > 51.3 |  |  |  |
| > 49.3 | 31.8 ± 5.4 |  |  | CCOC(=O)C1=C(C)NC2=C(C(=O)CC(C)(C)C2)C1c1cccs1 (stereo not drawn) [Compound 16] | 8.1 ± 1.3 | 12.6 ± 2.1 | 29.9 ± 5.1 |  |  |  |
| > 63.1 | > 63.1 |  |  | CCOC(=O)C1=C(C)NC(C)=C(C(=O)OCC)C1c1ccccc1 [Compound 17] | < 50 | 60.1 ± 10.6 | > 63.1 |  |  | 49.8 ± 6.5 |
| > 57.9 | > 57.9 |  |  | CCOC(=O)C1=C(C)NC(C)=C(C(=O)OCC)C1c1ccc(OC)cc1 [Compound 18] | > 57.9 | 45.4 ± 7.8 | > 57.9 |  |  |  |
| > 47.8 | > 47.8 |  |  | CCOC(=O)C1=C(C)NC(C)=C(C(=O)OCC)C1c1ccc(OCc2ccccc2)cc1 [Compound 19] | > 47.8 | 33.5 ± 6.2 | 43.4 ± 7.5 |  |  |  |
| > 50.9 | > 50.9 |  |  | CCOC(=O)C1=C(C)NC(C)=C(C(=O)OCC)C1c1ccc(Br)cc1 [Compound 20] | > 50.9 | 35 ± 5.9 | 44.8 ± 8.2 |  |  |  |
| > 59.9 | > 59.9 |  |  | CCOC(=O)C1=C(C)NC(C)=C(C(=O)OCC)C1c1cccc(F)c1 [Compound 21] | > 59.9 | > 59.9 | > 59.9 |  |  |  |
| < 50 | > 55.6 |  | 46.5 ± 7.7 | CCOC(=O)C1=C(C)NC(C)=C(C(=O)OCC)C1c1cccc([N+](=O)[O-])c1 [Compound 22] |  | 29.9 ± 4.4 | 46.5 ± 7.4 | inactive |  |  |
| > 55.4 | > 55.4 |  |  | CCOC(=O)C1=C(C)NC(C)=C(C(=O)OCC)C1c1ccc(O)c(OC)c1 [Compound 23] | < 50 | 22.1 ± 3.2 | 40.5 ± 6.8 |  |  | 29.8 ± 4.8 |
| < 50 | > 49.6 |  | 42.7 ± 8 | CCOC(=O)C1=C(C)NC(C)=C(C(=O)OCC)C1c1cc(OC)c(OC)c(OC)c1 [Compound 24] | > 49.6 | 14.8 ± 2.6 | 34.1 ± 5.5 | inactive |  |  |

From paper PMC12290673, “Antileishmanial and Antitoxoplasmal Activities of 1,4-Dihydropyridines” (ACS Omega, 2025)
